Consider four molecules from patent US12495798B2, “Nicotinamide compound and herbicidal composition comprising compound” (KOREA RESEARCH INSTITUTE OF CHEMICAL TECHNOLOGY, priority 2019, dated 2025).

Holding throughout (type): in vivo
Assay [1] has as its system sorghum. As to the kind of experiment: Herbicidal activity test against upland field weeds (foliar treatment test). The conditions noted are these: Sorghum, 50 g ai/ha, scale 0-100. In outline:
(§1)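 Visual 0–100 control ratings relative to untreated plants, taken 14 (or 21) days after spraying foliage at 50 or 75 g a.i./ha. Spray solution: 50% acetone with 0.1% Tween-20; plants kept in greenhouse at 30±5 °C, 14 h light/10 h dark.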

Assay [2] deals with barnyard grass. Described as above. The conditions noted are these: Echinochloa crus-galli, 50 g ai/ha, scale 0-100. The gist of the method:
as §1

Assay [3] concerns quack grass. The description is as above. Also on record: key to Foliar treatment herbicidal activity, quack grass: 0 (no control); 100 (complete control). Particulars: 50 g ai/ha, scale 0-100. The gist of the method:
as §1

Assay [4] concerns crabgrass. Described as above. Particulars: Digitaria sanguinalis, 50 g ai/ha, scale 0-100. In outline:
as §1

In assay [5] the test system is fall panicum. The description is as above. Particulars: Panicum dichotomiflorum, 50 g ai/ha, scale 0-100. In outline:
as §1

The test system of assay [6] is black nightshade. The assay is described as above. The conditions noted are these: Solanum nigrum, 50 g ai/ha, scale 0-100. In outline: as §1
Assay [7] deals with indian jointvetch. The description is as above. The conditions noted are these: 50 g ai/ha, scale 0-100. In outline:
as §1

Assay [8] has as its system velvetleaf. The description is as above. The conditions noted are these: 50 g ai/ha; for pest or weed control at 50 g/ha: Abutilon theophrasti, scale 0-100, read-out: Foliar treatment herbicidal activity, velvet leaf. Also on record: key to Foliar treatment herbicidal activity, velvet leaf: 0 (no control); 100 (complete control). In outline:
as §1

In assay [9] the test system is cocklebur. Described as above. Also on record: key to Foliar treatment herbicidal activity, Cocklebur: 0 (no control); 100 (complete control). Particulars: 50 g ai/ha, scale 0-100; for pest or weed control at 50 g/ha: Xanthium strumarium. In outline: as §1
Assay [10] has as its system bindweed. The description is as above. The conditions noted are these: 50 g ai/ha, scale 0-100. The gist of the method: as §1
Assay [11] relates to sorghum. As to the kind of experiment: Herbicidal activity test against upland field weeds (soil treatment test). Also on record: key to Soil treatment herbicidal activity, Sorghum: 0 (no control); 100 (complete control). Particulars: 50 g ai/ha, scale 0 (no control) to 100 (complete control); for plant injury at 50 g/ha: Sorghum. In outline: (§2)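 Weed control scored visually on a 0 (none) to 100 (complete) scale versus untreated pots at 14 or 21 days in greenhouse (30±5 °C, 14 h light). Test compounds, 50 or 75 g a.i./ha in 50% acetone/0.1% Tween-20, hand-sprayed onto soil one day post-sowing.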

For assay [12], the system named is barnyard grass. The assay is described as above. Also on record: key to Soil treatment herbicidal activity, barnyard grass: 0 (no control); 100 (complete control). Particulars: 50 g ai/ha, scale 0 (no control) to 100 (complete control). The gist of the method:
as §2

Assay [13] has as its system quack grass. The description is as above. Also noted: key to Soil treatment herbicidal activity, quack grass: 0 (no control); 100 (complete control). Particulars: 50 g ai/ha, scale 0 (no control) to 100 (complete control). The gist of the method: as §2
Assay [14] relates to crabgrass. Described as above. Also on record: key to Soil treatment herbicidal activity, Crabgrass: 0 (no control); 100 (complete control). Particulars: 50 g ai/ha, scale 0 (no control) to 100 (complete control). The gist of the method:
as §2

The test system of assay [15] is fall panicum. Described as above. Also on record: key to Soil treatment herbicidal activity, Fall panicum: 0 (no control); 100 (complete control). The conditions noted are these: 50 g ai/ha, scale 0 (no control) to 100 (complete control); for pest or weed control at 50 g/ha: Panicum dichotomiflorum. In outline: as §2
Assay [16] deals with black nightshade. The description is as above. Also noted: key to Soil treatment herbicidal activity, black nightshade: 0 (no control); 100 (complete control). Particulars: 50 g ai/ha, scale 0 (no control) to 100 (complete control). The gist of the method:
as §2

Assay [17] has as its system indian jointvetch. The assay is described as above. The conditions noted are these: 50 g ai/ha, scale 0 (no control) to 100 (complete control). Also noted: key to Soil treatment herbicidal activity, Indian jointvetch: 0 (no control); 100 (complete control). In outline: as §2
Assay [18] concerns velvetleaf. Described as above. Also on record: key to Soil treatment herbicidal activity, velvet leaf: 0 (no control); 100 (complete control). Particulars: 50 g ai/ha, scale 0 (no control) to 100 (complete control). The gist of the method: as §2
Assay [19] relates to cocklebur. Described as above. Also on record: key to Soil treatment herbicidal activity, Cocklebur: 0 (no control); 100 (complete control). The conditions noted are these: 50 g ai/ha, scale 0 (no control) to 100 (complete control). On the procedure:
Experimental Example 2: Herbicidal Activity Test Against Upland Field Weeds (Soil Treatment Test) Soil treatment was performed as follows: After filling a square plastic pot having a surface area of 350 cm^2 with sandy loam mixed with 1 g per pot (350 cm^2) of horticultural mixed fertilizer (N:P:K=11:10:11), seeds (10˜15 grains) or rootstocks (2 pieces) of 5 kinds of grassy weeds of sorghum, barnyard grass, quack grass, crabgrass, fall panicum, and 5 kinds of broadleaf weeds of black nightshade, indian jointvetch, velvetleaf, cocklebur, bindweed, which had been stored in a low temperature (6° C.), were sown. The day after sowing, test compound solutions were made by diluting with a preparation solution (including 50% acetone, 0.1% Tween-20) so that the final treatment amount of the test compounds was 50 or 75 g a.i./ha. The prepared test compound solution was used for treating soil surface by hand-spraying 14 mL per pot in a fume hood. After the treatment, it was managed under the same greenhouse conditions (average temperature 30±5° C., light/dark=14/10 hours), and after 14 days (after 21 days if necessary), the external symptoms and efficacy were investigated according to the scale of 0 (no control) to 100 (complete control). The results of Table 8 were obtained by evaluating weed control value to the untreated control by conducting visual assessment.

The test system of assay [20] is bindweed. Described as above. Particulars: 50 g ai/ha, scale 0 (no control) to 100 (complete control). In outline:
as §2

As a reminder, the plant injury is how far the test organism was held down.

For the molecule `CON(Cc1nnn(C)n1)Cc1nc(C(F)(F)Cl)ccc1C(=O)Nc1nnnn1C` [Compound No. 2-79, 6-(chlorodifluoromethyl)-2-((methoxy((2-methyl-2H-tetrazol-5-yl)methyl)amino)methyl)-N-(1-methyl-1H-tetrazol-5-yl)nicotinamide], the plant injury at 50 g/ha stood at 20% in the assay with sorghum [1] and 30% in the assay with sorghum [11]. Further, the pest or weed control at 50 g/ha in the assay on barnyard grass [2] turned out to be 80%; in the assay with crabgrass [4], 70%; with fall panicum [5], 50%; in the assay on black nightshade [6], 98%; with indian jointvetch [7], 70%; in the assay on velvetleaf [8], 80%. The pest or weed control at 50 g/ha with cocklebur [9] came out at 60%; in the assay with bindweed [10], 40%; in the assay with crabgrass [14] (Digitaria sanguinalis) it was 95%; in the assay on fall panicum [15] it was 98%. Further, the “Foliar treatment herbicidal activity, quack grass” value in the assay on quack grass [3] is reported as 0. Besides, the “Soil treatment herbicidal activity, barnyard grass” value with barnyard grass [12] amounted to 100. Further, the “Soil treatment herbicidal activity, quack grass” value in the assay on quack grass [13] came to 0. Also, the “Soil treatment herbicidal activity, black nightshade” value with black nightshade [16] was determined as 100. The “Soil treatment herbicidal activity, Indian jointvetch” value in the assay on indian jointvetch [17] is given as 100. Moreover, the “Soil treatment herbicidal activity, velvet leaf” value in the assay with velvetleaf [18] is reported as 100. Moreover, in the assay on cocklebur [19], the “Soil treatment herbicidal activity, Cocklebur” value is given as 0.

For the molecule `CC(=O)N(C(=O)c1ccc(C(F)(F)F)nc1COCc1nnn(C)n1)c1nnnn1C` [Compound No. 2-67, N-acetyl-N-(1-methyl-1H-tetrazol-5-yl)-2-(((2-methyl-2H-tetrazol-5-yl)methoxy)methyl)-6-(trifluoromethyl)nicotinamide], the plant injury at 50 g/ha with sorghum [1] worked out at 40%; with sorghum [11], 50%. Moreover, the pest or weed control at 50 g/ha turned out to be 70% in the assay with barnyard grass [2]; 70% in the assay on crabgrass [4]; 60% with fall panicum [5]; 95% with black nightshade [6]; 80% with indian jointvetch [7]; 80% with velvetleaf [8]. In addition, the pest or weed control at 50 g/ha in the assay with cocklebur [9] amounted to 95%; in the assay on bindweed [10], 40%; with fall panicum [15], 90%; in the assay with bindweed [20], 70%. In addition, in the assay with quack grass [3], the “Foliar treatment herbicidal activity, quack grass” value is listed as 0. Moreover, the “Soil treatment herbicidal activity, barnyard grass” value in the assay on barnyard grass [12] is 100. Further, in the assay on quack grass [13], the “Soil treatment herbicidal activity, quack grass” value turned out to be 0. Also, in the assay on crabgrass [14], the “Soil treatment herbicidal activity, Crabgrass” value amounted to 100. Besides, the “Soil treatment herbicidal activity, Indian jointvetch” value in the assay with indian jointvetch [17] is listed as 100. For the same molecule, in the assay with velvetleaf [18], the “Soil treatment herbicidal activity, velvet leaf” value was determined as 100. For the same molecule, the “Soil treatment herbicidal activity, Cocklebur” value in the assay with cocklebur [19] is listed as 100.

`CON(Cc1nc(C(F)(F)F)ccc1C(=O)Nc1nnnn1C)Cc1ncnn1C` [Compound No. 1-91, 2-((methoxy((1-methyl-1H-1,2,4-triazol-5-yl)methyl)amino)methyl)-N-(1-methyl-1H-tetrazol-5-yl)-6-(trifluoromethyl)nicotinamide]: the plant injury at 50 g/ha in the assay with sorghum [1] was determined as 50%. Besides, the pest or weed control at 50 g/ha in the assay on barnyard grass [2] was 98%; in the assay on crabgrass [4], 98%; in the assay on fall panicum [5], 90%; in the assay on black nightshade [6], 98%; in the assay with indian jointvetch [7] it was 90%; in the assay on bindweed [10], 80%. For the same molecule, the pest or weed control at 50 g/ha in the assay on black nightshade [16] (Solanum nigrum) and with indian jointvetch [17] was 98% throughout. The “Foliar treatment herbicidal activity, quack grass” value in the assay with quack grass [3] was 0. Further, the “Foliar treatment herbicidal activity, velvet leaf” value with velvetleaf [8] (scale 0-100) amounted to 100. The “Foliar treatment herbicidal activity, Cocklebur” value in the assay with cocklebur [9] was 100. Also, the “Soil treatment herbicidal activity, Sorghum” value in the assay with sorghum [11] amounted to 0. Besides, in the assay with barnyard grass [12], the “Soil treatment herbicidal activity, barnyard grass” value came out at 0. The “Soil treatment herbicidal activity, quack grass” value with quack grass [13] was 0. Moreover, the “Soil treatment herbicidal activity, Crabgrass” value in the assay on crabgrass [14] was 0. Moreover, the “Soil treatment herbicidal activity, Fall panicum” value in the assay with fall panicum [15] was 0. For the same molecule, the “Soil treatment herbicidal activity, velvet leaf” value in the assay on velvetleaf [18] turned out to be 100. In addition, the “Soil treatment herbicidal activity, Cocklebur” value in the assay on cocklebur [19] was 0.

Molecule `CON(Cc1nnn(C)n1)Cc1nc(C(F)F)ccc1C(=O)Nc1nnnn1C` [Compound No. 2-86, 6-(difluoromethyl)-2-((methoxy((2-methyl-2H-tetrazol-5-yl)methyl)amino)methyl)-N-(1-methyl-1H-tetrazol-5-yl)nicotinamide] came in with a plant injury at 50 g/ha in the assay on sorghum [1] of 30%. In addition, the pest or weed control at 50 g/ha in the assay on barnyard grass [2] came to 95%; in the assay with crabgrass [4], 70%; with fall panicum [5], 50%; with black nightshade [6], 95%; with indian jointvetch [7], 80%; with velvetleaf [8], 98%. The pest or weed control at 50 g/ha in the assay with cocklebur [9] amounted to 80%; in the assay with bindweed [10], 40%; with barnyard grass [12] (Echinochloa crus-galli), 98%; in the assay on fall panicum [15] it was 20%. Also, the “Foliar treatment herbicidal activity, quack grass” value in the assay on quack grass [3] is reported as 0. The “Soil treatment herbicidal activity, Sorghum” value in the assay with sorghum [11] was 0. The “Soil treatment herbicidal activity, quack grass” value with quack grass [13] amounted to 0. For the same molecule, in the assay on crabgrass [14], the “Soil treatment herbicidal activity, Crabgrass” value amounted to 0. In addition, in the assay with black nightshade [16], the “Soil treatment herbicidal activity, black nightshade” value was found to be 100. In the assay with indian jointvetch [17], the “Soil treatment herbicidal activity, Indian jointvetch” value was determined as 100. Besides, the “Soil treatment herbicidal activity, velvet leaf” value in the assay on velvetleaf [18] worked out at 100. In addition, the “Soil treatment herbicidal activity, Cocklebur” value with cocklebur [19] was 0.
